In one experiment the test system is MDA-MB-231. As to the kind of experiment: Cytotoxicity against human MDA-MB-231 cells measured after 8 days. Format: functional, cell-based. Particulars: MDA-MB-231, 192 h.
Consider `C/C=C/Cn1cc(-c2cc(OC)c(C(=O)N3CCOCC3)cc2OC)c2cc(C)[nH]c2c1=O`, for which half-maximal inhibition (IC50) required 2 µM.

In the case of `C/C=C/Cn1cc(-c2ccc(C(C)(C)O)cc2OC)c2cc[nH]c2c1=O`, the IC50 was 20 µM.

Regarding `C/C=C/Cn1cc(-c2ccc(C(=O)N3CCOCC3)cc2)c2cc[nH]c2c1=O`, the IC50 is 20 µM.

The next experiment concerns the target T1, Myosin light chain kinase (Homo sapiens) (UniProt Q32MK0).
T1 sequence (whole entry): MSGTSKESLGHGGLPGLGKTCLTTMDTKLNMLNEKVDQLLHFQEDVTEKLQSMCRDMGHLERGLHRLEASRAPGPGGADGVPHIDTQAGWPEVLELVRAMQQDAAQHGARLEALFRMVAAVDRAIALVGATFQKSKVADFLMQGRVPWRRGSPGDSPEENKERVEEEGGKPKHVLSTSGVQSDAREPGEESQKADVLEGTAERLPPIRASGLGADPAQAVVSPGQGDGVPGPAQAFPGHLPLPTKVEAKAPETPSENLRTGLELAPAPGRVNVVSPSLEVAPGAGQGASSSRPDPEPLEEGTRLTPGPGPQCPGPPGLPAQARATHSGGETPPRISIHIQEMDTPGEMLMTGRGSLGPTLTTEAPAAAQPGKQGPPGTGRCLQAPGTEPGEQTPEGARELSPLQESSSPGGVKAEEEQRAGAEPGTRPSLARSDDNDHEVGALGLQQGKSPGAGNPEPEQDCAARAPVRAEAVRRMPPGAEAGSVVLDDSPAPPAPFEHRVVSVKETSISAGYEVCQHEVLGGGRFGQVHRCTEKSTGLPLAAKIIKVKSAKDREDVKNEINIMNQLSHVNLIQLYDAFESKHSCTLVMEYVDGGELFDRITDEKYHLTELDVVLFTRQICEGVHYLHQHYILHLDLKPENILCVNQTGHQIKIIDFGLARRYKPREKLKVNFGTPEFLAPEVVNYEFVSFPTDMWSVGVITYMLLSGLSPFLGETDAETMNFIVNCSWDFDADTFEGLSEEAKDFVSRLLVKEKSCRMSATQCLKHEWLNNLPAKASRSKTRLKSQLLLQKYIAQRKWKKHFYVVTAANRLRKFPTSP
Nature of the experiment: Inhibition of MYLK3 (unknown origin) at 1 uM relative to control.
Settings: not given
With `C/C=C/Cn1cc(-c2cc(OC)c(C(=O)N3CCOCC3)cc2OC)c2cc(C)[nH]c2c1=O`, the inhibition came out at 5%.

Compound `C/C=C/Cn1cc(-c2ccc(C(C)(C)O)cc2OC)c2cc[nH]c2c1=O` came in with an inhibition of 2%.

For the compound `C/C=C/Cn1cc(-c2ccc(C(=O)N3CCOCC3)cc2)c2cc[nH]c2c1=O`, the inhibition amounted to 1.4%.

The subject of another experiment is COLO 320DM. As to the kind of experiment: Cytotoxicity against human COLO 320DM cells measured after 8 days. The format is functional, cell-based. The conditions noted are these: 192 h.
`C/C=C/Cn1cc(-c2cc(OC)c(C(=O)N3CCOCC3)cc2OC)c2cc(C)[nH]c2c1=O` registered an IC50 of 2 µM.

`C/C=C/Cn1cc(-c2ccc(C(C)(C)O)cc2OC)c2cc[nH]c2c1=O` had an IC50 of 20 µM.

In turn, `C/C=C/Cn1cc(-c2ccc(C(=O)N3CCOCC3)cc2)c2cc[nH]c2c1=O` returned an IC50 of 20 µM.

Another experiment has as its system HT. Nature of the experiment: Cytotoxicity against human HT cells measured after 8 days. Format: functional, cell-based. Particulars: 192 h.
`C/C=C/Cn1cc(-c2cc(OC)c(C(=O)N3CCOCC3)cc2OC)c2cc(C)[nH]c2c1=O` displayed an IC50 of 2 µM.

`C/C=C/Cn1cc(-c2ccc(C(C)(C)O)cc2OC)c2cc[nH]c2c1=O` showed an IC50 of 20 µM.

The compound `C/C=C/Cn1cc(-c2ccc(C(=O)N3CCOCC3)cc2)c2cc[nH]c2c1=O` had an IC50 of 20 µM.

The next experiment has as its system EPLC-272H. Nature of the experiment: Cytotoxicity against human EPLC-272H cells measured after 8 days. The format is functional, cell-based. The conditions noted are these: 192 h.
The compound `C/C=C/Cn1cc(-c2cc(OC)c(C(=O)N3CCOCC3)cc2OC)c2cc(C)[nH]c2c1=O` returned an IC50 of 2 µM.

In the case of `C/C=C/Cn1cc(-c2ccc(C(C)(C)O)cc2OC)c2cc[nH]c2c1=O`, the IC50 stood at 20 µM.

With `C/C=C/Cn1cc(-c2ccc(C(=O)N3CCOCC3)cc2)c2cc[nH]c2c1=O`, 20 µM corresponded to half-maximal inhibition (IC50).

Another experiment deals with HOP-92. Nature of the experiment: Cytotoxicity against human HOP-92 cells measured after 8 days. Format: functional, cell-based. Particulars: HOP-92, 192 h.
The compound `C/C=C/Cn1cc(-c2cc(OC)c(C(=O)N3CCOCC3)cc2OC)c2cc(C)[nH]c2c1=O` displayed an IC50 of 2 µM.

The compound `C/C=C/Cn1cc(-c2ccc(C(C)(C)O)cc2OC)c2cc[nH]c2c1=O` showed an IC50 of 20 µM.

Consider `C/C=C/Cn1cc(-c2ccc(C(=O)N3CCOCC3)cc2)c2cc[nH]c2c1=O`, for which 20 µM corresponded to half-maximal inhibition (IC50).

System in another experiment: not listed separately
Nature of the experiment: Cytotoxicity against human KMS-28PE cells measured after 8 days. Particulars: 192 h. The format is functional, cell-based.
`C/C=C/Cn1cc(-c2cc(OC)c(C(=O)N3CCOCC3)cc2OC)c2cc(C)[nH]c2c1=O` had an IC50 of 2 µM.

Compound `C/C=C/Cn1cc(-c2ccc(C(C)(C)O)cc2OC)c2cc[nH]c2c1=O` yielded a 50% inhibitory concentration (IC50) of 20 µM.

Compound `C/C=C/Cn1cc(-c2ccc(C(=O)N3CCOCC3)cc2)c2cc[nH]c2c1=O` returned an IC50 of 20 µM.

The next experiment relates to NCI-H661. Nature of the experiment: Cytotoxicity against human NCI-H661 cells measured after 8 days. The format is functional, cell-based. The conditions noted are these: NCI-H661, 192 h.
In turn, `C/C=C/Cn1cc(-c2cc(OC)c(C(=O)N3CCOCC3)cc2OC)c2cc(C)[nH]c2c1=O` yielded an IC50 of 2 µM.

`C/C=C/Cn1cc(-c2ccc(C(C)(C)O)cc2OC)c2cc[nH]c2c1=O`: the IC50 came to 20 µM.

As for `C/C=C/Cn1cc(-c2ccc(C(=O)N3CCOCC3)cc2)c2cc[nH]c2c1=O`, the IC50 came out at 20 µM.

The next experiment deals with Bromodomain-containing protein 4 (Homo sapiens, UniProt O60885). Nature of the experiment: Binding affinity to human partial length BRD4 bromodomain 2 long isoform (K333 to E460 residues) expressed in bacterial expression system by BROMOscan assay.
Settings: not given
`C/C=C/Cn1cc(-c2cc(OC)c(C(=O)N3CCOCC3)cc2OC)c2cc(C)[nH]c2c1=O` came in with a Kd greater than 10 µM.

On to `C/C=C/Cn1cc(-c2ccc(C(C)(C)O)cc2OC)c2cc[nH]c2c1=O`, for which the Kd is 3.7 µM.

Compound `C/C=C/Cn1cc(-c2ccc(C(=O)N3CCOCC3)cc2)c2cc[nH]c2c1=O` gave a Kd of 6.6 µM.

On to `C/C=C/Cn1cc(-c2cc(OC)c(C(C)(C)O)cc2OC)c2cc(C)[nH]c2c1=O`, for which the Kd was greater than 10 µM.

In a further experiment the test system is ChaGo-K-1. Nature of the experiment: Cytotoxicity against human ChaGo-K-1 cells measured after 8 days. The format is functional, cell-based. The conditions noted are these: ChaGo-K-1, 192 h.
As for `C/C=C/Cn1cc(-c2cc(OC)c(C(=O)N3CCOCC3)cc2OC)c2cc(C)[nH]c2c1=O`, half-maximal inhibition (IC50) was put at 2 µM.

Compound `C/C=C/Cn1cc(-c2ccc(C(C)(C)O)cc2OC)c2cc[nH]c2c1=O` registered an IC50 of 20 µM.

In turn, `C/C=C/Cn1cc(-c2ccc(C(=O)N3CCOCC3)cc2)c2cc[nH]c2c1=O` displayed an IC50 of 20 µM.

System in another experiment: not listed separately
As to the kind of experiment: Cytotoxicity against human KE-97 cells measured after 8 days. The conditions noted are these: KE-97, 192 h. The format is functional, cell-based.
Compound `C/C=C/Cn1cc(-c2cc(OC)c(C(=O)N3CCOCC3)cc2OC)c2cc(C)[nH]c2c1=O` showed an IC50 of 2 µM.

Compound `C/C=C/Cn1cc(-c2ccc(C(C)(C)O)cc2OC)c2cc[nH]c2c1=O` registered an IC50 of 20 µM.

For the compound `C/C=C/Cn1cc(-c2ccc(C(=O)N3CCOCC3)cc2)c2cc[nH]c2c1=O`, the IC50 came out at 20 µM.

The target in another experiment is High affinity nerve growth factor receptor (Homo sapiens) (UniProt P04629). As to the kind of experiment: Inhibition of TrkA (unknown origin) at 1 uM relative to control.
Sequence of High affinity nerve growth factor receptor (Homo sapiens) (P04629 33-796 limits assumed): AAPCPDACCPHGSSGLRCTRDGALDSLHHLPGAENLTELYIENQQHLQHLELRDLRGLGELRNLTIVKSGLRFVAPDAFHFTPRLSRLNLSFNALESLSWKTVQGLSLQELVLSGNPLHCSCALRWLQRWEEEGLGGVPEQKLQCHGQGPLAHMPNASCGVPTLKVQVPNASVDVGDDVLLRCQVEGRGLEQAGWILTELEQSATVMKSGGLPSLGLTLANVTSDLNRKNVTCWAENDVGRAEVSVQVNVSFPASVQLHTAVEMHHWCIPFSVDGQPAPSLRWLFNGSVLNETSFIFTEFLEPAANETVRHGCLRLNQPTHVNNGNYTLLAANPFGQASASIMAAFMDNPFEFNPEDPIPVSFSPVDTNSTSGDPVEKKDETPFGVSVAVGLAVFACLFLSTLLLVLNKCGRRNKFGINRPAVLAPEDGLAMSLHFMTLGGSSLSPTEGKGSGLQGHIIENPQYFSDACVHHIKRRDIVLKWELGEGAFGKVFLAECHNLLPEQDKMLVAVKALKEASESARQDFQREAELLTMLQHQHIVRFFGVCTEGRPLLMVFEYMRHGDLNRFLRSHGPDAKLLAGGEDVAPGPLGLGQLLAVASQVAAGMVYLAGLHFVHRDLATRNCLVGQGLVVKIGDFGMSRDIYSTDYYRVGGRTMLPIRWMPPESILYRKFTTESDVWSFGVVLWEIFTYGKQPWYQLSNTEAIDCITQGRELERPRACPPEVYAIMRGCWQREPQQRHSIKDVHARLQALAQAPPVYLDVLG
Settings: not given
As for `C/C=C/Cn1cc(-c2cc(OC)c(C(=O)N3CCOCC3)cc2OC)c2cc(C)[nH]c2c1=O`, the inhibition came to 12%.

`C/C=C/Cn1cc(-c2ccc(C(C)(C)O)cc2OC)c2cc[nH]c2c1=O` had an inhibition of 12.5%.

Compound `C/C=C/Cn1cc(-c2ccc(C(=O)N3CCOCC3)cc2)c2cc[nH]c2c1=O` gave an inhibition of 21.4%.

Another experiment concerns HCC515. As to the kind of experiment: Cytotoxicity against human HCC515 cells measured after 8 days. Format: functional, cell-based. Particulars: HCC515, 192 h.
In turn, `C/C=C/Cn1cc(-c2cc(OC)c(C(=O)N3CCOCC3)cc2OC)c2cc(C)[nH]c2c1=O` gave an IC50 of 2 µM.

As for `C/C=C/Cn1cc(-c2ccc(C(C)(C)O)cc2OC)c2cc[nH]c2c1=O`, the midpoint of inhibition, the IC50, lay at 20 µM.

For the compound `C/C=C/Cn1cc(-c2ccc(C(=O)N3CCOCC3)cc2)c2cc[nH]c2c1=O`, it took 20 µM to reach half-maximal inhibition (IC50).

For the next experiment, the species on record is Homo sapiens. Nature of the experiment: Displacement of [3H]BRL 43694 from human recombinant 5-HT3 receptor at 10 uM after 120 mins by scintillation counting analysis relative to control.
Settings: not given
As for `C/C=C/Cn1cc(-c2cc(OC)c(C(=O)N3CCOCC3)cc2OC)c2cc(C)[nH]c2c1=O`, the Activity is -5%.

As to `C/C=C/Cn1cc(-c2ccc(C(C)(C)O)cc2OC)c2cc[nH]c2c1=O`, the Activity is -6%.

On to `C/C=C/Cn1cc(-c2ccc(C(=O)N3CCOCC3)cc2)c2cc[nH]c2c1=O`, for which the Activity is -5%.

The next experiment deals with CW-2. Nature of the experiment: Cytotoxicity against human CW-2 cells measured after 8 days. Format: functional, cell-based. The conditions noted are these: CW-2, 192 h.
On to `C/C=C/Cn1cc(-c2cc(OC)c(C(=O)N3CCOCC3)cc2OC)c2cc(C)[nH]c2c1=O`, for which inhibition was half-maximal at 2 µM (IC50).

Take `C/C=C/Cn1cc(-c2ccc(C(C)(C)O)cc2OC)c2cc[nH]c2c1=O`: the IC50 is 20 µM.

In the case of `C/C=C/Cn1cc(-c2ccc(C(=O)N3CCOCC3)cc2)c2cc[nH]c2c1=O`, the IC50 was determined as 20 µM.

The target of another experiment is T2, Muscarinic acetylcholine receptor M2 (Homo sapiens) (UniProt P08172).
T2 sequence (whole entry): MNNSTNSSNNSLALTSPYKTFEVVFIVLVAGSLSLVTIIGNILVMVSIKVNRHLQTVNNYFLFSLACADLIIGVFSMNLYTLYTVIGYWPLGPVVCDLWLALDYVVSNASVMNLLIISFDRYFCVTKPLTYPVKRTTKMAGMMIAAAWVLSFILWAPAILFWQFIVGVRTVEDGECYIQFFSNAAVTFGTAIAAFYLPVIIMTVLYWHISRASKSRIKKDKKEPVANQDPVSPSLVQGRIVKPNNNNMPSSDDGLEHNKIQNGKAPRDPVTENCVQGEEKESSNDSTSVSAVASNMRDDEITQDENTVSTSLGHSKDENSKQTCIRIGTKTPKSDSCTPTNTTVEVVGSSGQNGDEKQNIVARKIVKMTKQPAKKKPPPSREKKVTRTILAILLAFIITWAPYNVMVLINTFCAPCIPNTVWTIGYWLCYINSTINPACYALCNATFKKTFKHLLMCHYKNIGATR
Nature of the experiment: Displacement of [3H]AF-DX 384 from human recombinant M2 receptor at 10 uM after 60 mins by scintillation counting analysis relative to control.
Settings: not given
Take `C/C=C/Cn1cc(-c2cc(OC)c(C(=O)N3CCOCC3)cc2OC)c2cc(C)[nH]c2c1=O`: the Activity is -8%.

As for `C/C=C/Cn1cc(-c2ccc(C(C)(C)O)cc2OC)c2cc[nH]c2c1=O`, the Activity was -10%.

With `C/C=C/Cn1cc(-c2ccc(C(=O)N3CCOCC3)cc2)c2cc[nH]c2c1=O`, the Activity was -7%.

Broadly, the IC50 is the midpoint of a concentration-inhibition curve. Low readings indicate higher potency, high ones lower potency. The inhibition is the share of the control response that was lost under treatment. A high value points to a strong effect. A word on the Kd: it is the constant that tells how readily two partners part at equilibrium. Read a high Kd as lower affinity.

The values above are taken from ChEMBL document CHEMBL5260810, “Inhibition of bromodomain-containing protein 9 for the prevention of epigenetically-defined drug resistance” (Bioorg Med Chem Lett, 2017).
